Test results from article PMC8759724 (Journal of Enzyme Inhibition and Medicinal Chemistry, 2021).

Key:
WT PfDHFR [1] = biological target: WT PfDHFR (Plasmodium falciparum, UniProt P13922, N108S/R59C); test: Differential scanning fluorimetry; assay type: binding; conditions: DSF, apo PfDHFR (no NADPH added with the ligand)
WT PfDHFR [2] = biological target: WT PfDHFR (Plasmodium falciparum, UniProt P13922); test: PfDHFR activity assay; assay type: biochemical

Molecule	ΔTm (melting temperature variation) (WT PfDHFR [1])	IC50 (WT PfDHFR [2]) [µM]
Nc1nc(=O)c2c([nH]1)NCC(CNc1ccc(C(=O)N[C@@H](CCC(=O)O)C(=O)O)cc1)=N2 [DHF, dihydrofolate]	minor melting temperature variations	
NC(=O)C1=CN([C@@H]2O[C@H](COP(=O)(O)OP(=O)(O)OC[C@H]3O[C@@H](n4cnc5c(N)ncnc54)[C@H](OP(=O)(O)O)[C@@H]3O)[C@@H](O)[C@H]2O)C=CC1 [NADPH]	+4 °C	
NC(=O)Nc1cccc(C(F)(F)F)c1 [fragment 148, [3-(trifluoromethyl)phenyl]urea]		464
tetrahydrofolate [THF]	minor melting temperature variations	
